# Assay results taken from PubChem BioAssay (NCI).
#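 How tested: cells in 96-well plates exposed to compound for 48 hours at five concentrations. GI50 = concentration required for 50% inhibition of growth. At the TGI there is no net growth.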
# Key:
# Assay in all cases: NCI anticancer screen, dose series, 48 h
# COLO 205 colon = tested on: COLO 205 colon
# SK-OV-3 ovarian = tested on: SK-OV-3 ovarian
# HCT-116 colon = tested on: HCT-116 colon
# ACHN renal = tested on: ACHN renal
# PC-3 prostate = tested on: PC-3 prostate
# DU-145 prostate = tested on: DU-145 prostate
# MALME-3M melanoma = tested on: MALME-3M melanoma
# SK-MEL-28 melanoma = tested on: SK-MEL-28 melanoma
# SF-268 CNS = tested on: SF-268 CNS
# K-562 leukemia = tested on: K-562 leukemia
SMILES,GI50 (COLO 205 colon),TGI (COLO 205 colon),GI50 (SK-OV-3 ovarian),TGI (SK-OV-3 ovarian),GI50 (HCT-116 colon),TGI (HCT-116 colon),GI50 (ACHN renal),TGI (ACHN renal),GI50 (PC-3 prostate),TGI (PC-3 prostate),GI50 (DU-145 prostate),TGI (DU-145 prostate),GI50 (MALME-3M melanoma),TGI (MALME-3M melanoma),GI50 (SK-MEL-28 melanoma),TGI (SK-MEL-28 melanoma),GI50 (SF-268 CNS),TGI (SF-268 CNS),GI50 (K-562 leukemia),TGI (K-562 leukemia)
Cc1ccc(CNc2c3ccccc3nc3cc(NC(=O)CCN4CCCC4)ccc23)cc1,0.408 µM,1.62 µM,1.1 µM,2.79 µM,0.39 µM,1.42 µM,0.541 µM,1.74 µM,0.515 µM,1.83 µM,0.516 µM,1.66 µM,1.51 µM,2.92 µM,1.66 µM,3.09 µM,0.819 µM,2.31 µM,–,–
C[CH2][Sn]([CH2]C)([O]C(=O)C(OC(C)=O)c1ccccc1)[O]C(=O)C(OC(C)=O)c1ccccc1 (configuration not stated),23.3 µM,72.9 µM,> 100 µM,> 100 µM,92.6 µM,> 100 µM,17.3 µM,31.1 µM,> 100 µM,> 100 µM,94.7 µM,> 100 µM,18.4 µM,33.5 µM,18.3 µM,40.9 µM,16.6 µM,31.8 µM,14.6 µM,45.9 µM
C=C1C(=O)OC2C1C(OC(=O)/C(C)=C/C)CC(O)(CCl)C1C(O)C3OC3(C)C21O (configuration not stated),–,41.9 µM,–,> 50 µM,–,23.7 µM,–,> 50 µM,–,> 50 µM,–,> 50 µM,–,10.6 µM,–,> 50 µM,–,> 50 µM,–,> 50 µM
COc1ccc(/C=C2\CCCC3=C2NC(N)=NC3c2ccc(OC)c(OC)c2)cc1OC (configuration not stated),4.8 µM,> 100 µM,13.4 µM,> 100 µM,1.28 µM,8.64 µM,4.14 µM,> 76.2 µM,20.4 µM,> 100 µM,4.98 µM,> 100 µM,23.7 µM,> 70.2 µM,21.6 µM,> 100 µM,6.9 µM,> 100 µM,6.17 µM,> 100 µM
CCOc1ccccc1N=Nc1c(C)[nH]n(-c2nc(-c3ccccc3)cs2)c1=O,> 100 µM,> 100 µM,38.9 µM,> 100 µM,52.3 µM,> 100 µM,42.3 µM,> 100 µM,34.7 µM,> 100 µM,53.2 µM,> 100 µM,60.9 µM,> 100 µM,> 84.9 µM,> 100 µM,35.4 µM,> 100 µM,> 100 µM,> 100 µM
O=C(COc1ccc(/C=C2\Oc3ccccc3C2=O)cc1)Nc1nc2c(s1)CCCC2,> 73.2 µM,> 100 µM,50.2 µM,> 100 µM,9.94 µM,> 100 µM,17.4 µM,> 100 µM,16.8 µM,> 100 µM,0.417 µM,27.4 µM,1.25 µM,> 78.5 µM,27.8 µM,> 68.7 µM,–,–,18.8 µM,> 100 µM
CC1(C)[C@@H](OC(N)=O)[C@H]2O[C@H]2[C@]2(CO)[C@H]3CC[C@]4(C)[C@@H](c5ccc(=O)oc5)[C@@H](Cl)C[C@]4(O)C3=CC[C@@H]12,0.0109 µM,0.0506 µM,0.00661 µM,0.018 µM,0.00709 µM,0.0262 µM,0.00515 µM,0.0118 µM,0.00803 µM,0.0275 µM,0.00509 µM,0.0106 µM,0.00616 µM,0.0149 µM,0.016 µM,0.0902 µM,0.00457 µM,0.00892 µM,0.00978 µM,0.0547 µM
COc1c2c(nc3ccccc13)-c1cc3c(c(=O)n1C2)COC(=O)C3(O)CC(=O)N1CCOCC1 (configuration not stated),–,> 86.5 µM,–,68.3 µM,–,38.5 µM,–,14.7 µM,–,> 100 µM,–,17.7 µM,–,> 100 µM,–,> 98.2 µM,–,26.7 µM,–,> 100 µM
O=C1c2ccccc2-c2c1c1ccccc1c(=O)n2CCN1CCOCC1,> 100 µM,> 100 µM,> 100 µM,> 100 µM,36 µM,> 100 µM,29.8 µM,92 µM,> 100 µM,> 100 µM,> 100 µM,> 100 µM,> 100 µM,> 100 µM,> 100 µM,> 100 µM,> 100 µM,> 100 µM,25.8 µM,73.5 µM
CN1CC[C@@H](c2c(O)cc(O)c3c(=O)cc(-c4ccccc4Cl)oc23)[C@@H]1CO,0.262 µM,0.785 µM,1.4 µM,9.91 µM,0.2 µM,> 10 µM,0.294 µM,> 10 µM,0.314 µM,3.64 µM,0.365 µM,> 10 µM,0.361 µM,1.58 µM,0.27 µM,1.24 µM,0.305 µM,1.38 µM,0.297 µM,> 2.58 µM
O=C(NN1C(=O)CSC12CCCC2)c1[nH]c2ccc(Br)cc2c1-c1ccccc1,53.4 µM,> 100 µM,> 100 µM,> 100 µM,26.7 µM,> 100 µM,> 100 µM,> 100 µM,38.6 µM,> 100 µM,> 100 µM,> 100 µM,38.3 µM,> 100 µM,44 µM,> 100 µM,52.1 µM,> 100 µM,18.7 µM,43.2 µM
Clc1nc(Cl)c2ncn(C/C=C/COc3cccc(OC/C=C/Cn4cnc5c(Cl)nc(Cl)nc54)c3)c2n1,> 100 µM,> 100 µM,> 100 µM,> 100 µM,–,–,> 100 µM,> 100 µM,42 µM,> 100 µM,14.7 µM,27.8 µM,> 100 µM,> 100 µM,> 100 µM,> 100 µM,> 100 µM,> 100 µM,29.7 µM,> 100 µM
COc1ccc(C2SC(C)C(=O)N2NC(=O)C(O)c2ccccc2)cc1OC (configuration not stated),> 100 µM,> 100 µM,> 100 µM,> 100 µM,> 100 µM,> 100 µM,> 100 µM,> 100 µM,> 100 µM,> 100 µM,> 100 µM,> 100 µM,–,–,> 100 µM,> 100 µM,> 100 µM,> 100 µM,> 100 µM,> 100 µM
